Laboratory results published in patent publication US9073858B2, “Methods of targeted drug development” (priority 2010, dated 2015).
Where two headings read alike, the source gives them in different places.

What was measured:
MDBK line = test: MTT Cell Proliferation Assay, MDBK line; type: cell-based, bovine
From the text: (§1) The following example describes the MTT Cell Proliferation Assay.
(§2) The MTT Cell Proliferation Assay is a colorimetric assay system that measures the reduction of the tetrazolium salt MTT (3-(4,5-dimethylthiazol-2-yl)-2,5-diphenyltetrazolium bromide) into insoluble formazan crystals, produced by the mitochondria of viable cells. […] The color can then be quantified by spectrophotometric means. Among the applications for the method are drug sensitivity, cytotoxicity, response to growth factors, and cell activation. The reduction of tetrazolium salts is now recognized as a safe, accurate alternative to radiometric testing.
(§3) Two replicates on each cell plate and 2 duplicate plates gave 4 individual replicates of each concentration, in each cell line. Concentrations were diluted in 100% DMSO from 25 mM stocks.
(§4) Twelve 96 well plates of each cell line were plated. Plating was done by dislodging cells as in passage protocol, counting on a hemocytometer, re-suspending in standard growth media, and plating using a multichannel pippetor.
(§5) 16 μl of 25 mM stock+34 μl DMSO=8 mM starting concentrations, and serial diluted as with test compounds in same plate. […] Two replicates of each concentrations was run on each cell plate. All compound addition and cell treatments were done using aseptic technique under a laminar flow aseptic hood.
(§6) Control: 0.5% DMSO in treatment media was used as the control.
(§7) MTT dye (Thiazolyl Blue Tetrazolium Bromide, Sigma cat # M5655) stock was prepared in bulk and stored at 4° C. for use: 5 mgs/ml sterile PDS, shielded from light. 4 ul of this stock per 100 uls treatment media per well was used.
(§8) Plates were incubated overnight prior to treatment, with treatment day=Day 0. Compound treatments were prepared prior to washing cells to minimize time cells were dry at room temperature after final aspiration. Compounds were diluted in 100% DMSO in 96 well polypropylene plates:40 μl 25 mM stock+10 μl DMSO=20 mM; 20 μl of 20 mM+30 μl DMSO=8 mM; 20 μl of 8 mM+30 μl DMSO=3.2 mM; 20 μl of 3.2 mM+30 μl DMSO=1.3 mM; 20 μl of 1.3 mM+30 μl DMSO=0.51 mM.
(§9) 5.0 μl/ml were added to treatment media, in sterile, 2.2 ml deep well plates=0.5% dmso final. Ten μl of each dmso concentration was added to 2.0 ml of treatment media and then mixed using a 1200 μl multichannel pipettor. Cell plates were treated from the deep well plates. Treatment media was standard growth media containing 0.5% FBS and standard additions. This reduced FBS concentration allowed for a slower growth rate in cells.
(§10) Media was aspirated from cell plates, and washed with 200 μl/well sterile PBS. Aspirated PBS wash, and cell plates were treated with 200 μl of compound/treatment media per well, and incubated at 37° C., 5% CO2 for 3 days.
(§11) Prior to harvesting, visual observations were made under an inverted microscope. Plates were harvested by: aspirating the growth media; adding back MTT dye/100 μl treatment media; and incubating plates at 37° C. for 1 hour. MTT dye was aspirated. 100 μl/well dmso was added, and then shaken on a Bellco plate shaker for 5 minutes, at 4.5 setting.
(§12) Plates were read in a Tecan Sunrize UV plate reader, at 560 nm. Settings: Read mode, Outside Normal 2 sec; Shake settle time 3 sec. Data is reported as % inhibition, calculated for individual plates using control values from that plate.

[1] = tested on: epithelial carcinoma A431 cell line; test: MTT Cell Proliferation Assay, A431 cell line; type: cell-based; conditions: for MTT (10 Point follow-up) ratio / MTT-72 h A431/MDBK (ratio): value in brackets; for MTT (10 Point follow-up) ratio: numerically MDBK over A431; for MTT-72 h A431/MDBK (ratio): numerically MDBK value over A431 value
From the text: as §1, §2, §3, §4, §5, §6, §7, §8, §9, §10, §11, §12

EGFR = biological target: T1, EGFR (Homo sapiens, UniProt P00533); test: EGFR in-cell Western (ICW) screening protocol; type: cell-based; set-up: unit not given here; conditions: for ICW Screen: initial screen
T1 construct: endogenous in cells; host or cells: A431 cells (ATCC CRL-1555)
T1 sequence (P00533 25-1210): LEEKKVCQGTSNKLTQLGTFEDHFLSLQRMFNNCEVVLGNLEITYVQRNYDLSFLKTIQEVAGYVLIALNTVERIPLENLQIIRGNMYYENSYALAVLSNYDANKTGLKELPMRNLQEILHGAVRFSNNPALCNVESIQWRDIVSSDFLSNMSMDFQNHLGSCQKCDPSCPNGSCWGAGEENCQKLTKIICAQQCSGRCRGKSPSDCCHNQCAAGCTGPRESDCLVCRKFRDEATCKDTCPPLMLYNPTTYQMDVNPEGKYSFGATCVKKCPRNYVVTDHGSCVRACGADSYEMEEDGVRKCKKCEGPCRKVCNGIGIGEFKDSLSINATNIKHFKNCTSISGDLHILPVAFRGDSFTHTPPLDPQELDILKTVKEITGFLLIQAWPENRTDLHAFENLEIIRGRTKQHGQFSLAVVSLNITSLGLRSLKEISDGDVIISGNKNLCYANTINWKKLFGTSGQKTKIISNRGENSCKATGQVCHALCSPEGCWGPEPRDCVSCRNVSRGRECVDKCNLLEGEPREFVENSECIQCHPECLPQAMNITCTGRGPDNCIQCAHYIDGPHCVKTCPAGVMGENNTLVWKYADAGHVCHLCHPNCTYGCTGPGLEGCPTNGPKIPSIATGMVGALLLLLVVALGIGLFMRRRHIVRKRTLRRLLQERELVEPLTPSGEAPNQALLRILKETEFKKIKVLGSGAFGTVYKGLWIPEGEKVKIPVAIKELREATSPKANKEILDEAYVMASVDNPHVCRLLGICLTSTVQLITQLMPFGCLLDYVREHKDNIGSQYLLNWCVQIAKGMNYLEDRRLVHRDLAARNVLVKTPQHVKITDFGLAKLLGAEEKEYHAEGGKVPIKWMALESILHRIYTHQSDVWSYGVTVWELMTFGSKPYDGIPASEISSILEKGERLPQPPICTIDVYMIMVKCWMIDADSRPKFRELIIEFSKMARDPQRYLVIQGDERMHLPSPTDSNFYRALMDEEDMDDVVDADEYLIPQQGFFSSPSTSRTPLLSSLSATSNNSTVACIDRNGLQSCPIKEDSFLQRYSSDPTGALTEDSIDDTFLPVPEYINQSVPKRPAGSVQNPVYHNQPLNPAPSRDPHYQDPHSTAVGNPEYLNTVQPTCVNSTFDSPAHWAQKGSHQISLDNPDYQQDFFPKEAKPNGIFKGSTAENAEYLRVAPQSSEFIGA
Method: The following example describes general EGFR in-cell Western (ICW) screening protocol.
Two cell plates were prepared for each compound plate.
Serum Starvation: The cells were serum starved prior to compound addition. […] The cell plates were incubated at 37° C./5% CO2 for 2 hours.
Prepared compound plates were stored at RT prior to use and at 4° C. long term.
Compound Dilution Plate Preparation: 250 μl of DMEM supplemented with 1 mg/ml BSA (Sigma A3059-10G) was added to the appropriate wells of a 96 well plate to prepare the compound dilution plates. Using a multichannel pipettor, 1.25 μl of compound from the compound plate was transferred into the compound dilution plate.
Compound Addition: The starve media was removed from the cell plates by aspiration. Using a multichannel pipettor, the compound dilution plates were mixed by pipetting up and down three times. 50 μl of mixed, diluted compound was added to each of two rows/columns on each of two cell plates. The cell plates with compound were incubated at 37° C./5% CO2 for 4 hours.
50 μl of 20 or 0 ng/ml EGF was added to the appropriate wells without the removal of compound. The compound and EGF were mixed by pipetting up and down three times.
The plates were incubated at RT for 20 min without shaking. The Fixation Solution was removed by aspiration and the plates washed four times with 200 μl each of Triton Wash Solution (1×PBS, Sigma P3813-10PK, and 0.1% Triton X-100, T8787-50ML) for 5 min with gentle shaking.
The block was removed by aspiration and 50 μl of diluted primary Ab mix was added. The plates were incubated at 4° C. overnight with gentle shaking. The plates were washed five times with 200 μl of PBST (1×PBS, Sigma P3813-10PK, and 0.1% Tween-20, Sigma P9416-50ML) for 5 min each with shaking. 50 μl of diluted secondary Ab mix was added and the plates incubated at RT for 1 h with shaking. The plates were washed 5× with 200 μl of PBST for 5 min each with shaking. One final wash with 200 μl of PBS (Sigma P3813-10PK) for 5 min with shaking was performed prior to scanning.
In some screening assays, the dilution of the secondary Ab conjugates was 1/800 rather than 1/1200.
Plate Scanning: The plates were scanned on an Odyssey Infrared Imaging System from LI-COR Biosciences. The focus offset was set at 3.5 mm and the scanning intensity set at 3 for the 700 channel and 7 for the 800 channel.
Data Analysis: The % of Maximum and % Inhibition values were calculated as follows. 700 Channel=signal for total EGFR (used to control for variation in cell number). 800 Channel=signal for phosphorylated EGFR. 800−EGF=basal level EGFR phosporylation+non-specific signal (no compound). 800+EGF=800−EGF+EGF dependent EGFR receptor phosphorylation (no compound). 700/800com=700 or 800 channel signals with compound. % Maximum={[(800com/700com)−(800−EGF/700−EGF)]/[(800+EGF/700+EGF)−(800−EGF/700−EGF)]}×100%. % Inhibition=100%−(% Maximum).

[2] = Bos taurus, MDBK, 10 point follow-up, second value of pair, read-out: MTT (10 Point follow-up) MDBK
[3] = Bos taurus, MDBK, 72 h, second value of A431/MDBK pair, read-out: MTT-72 h MDBK
[4] = Homo sapiens, A-431, 10 point follow-up, first value of pair, read-out: MTT (10 Point follow-up) A431
[5] = Homo sapiens, A-431, 72 h, 72 h, first value of A431/MDBK pair, read-out: MTT-72 h A431

IC50 [1, 4]	IC50 [1, 5]	ICW Screen (EGFR)	ICW Re-Test (EGFR)	IC50 ([1]; 72 h, first value of A431/MDBK pair, read-out: MTT-72 h A431)	Structure (SMILES)	IC50 (MDBK line; [2])	IC50 (MDBK line; [3])	MTT (10 Point follow-up) ratio ([1]; 10 point follow-up)	MTT-72 h A431/MDBK (ratio) ([1]; 72 h)	IC50 (MDBK line; 72 h, second value of A431/MDBK pair, read-out: MTT-72 h MDBK)	MTT (10 Point follow-up) % Max ([1]; 10 point follow-up, maximal effect)
1.38 µM	2.15 µM	12.5			Cc1ccnc(NC(c2ccc3cccnc3c2O)c2c(O)cccc2Cl)c1 (stereo not drawn) [compound 10067]	2.95 µM	3.45 µM	2.14	1.60		
	5.72 µM	29.92			CC(C)Oc1ccc(C(Nc2ccccn2)c2ccc3cccnc3c2O)cc1 (stereo not drawn) [compound 10068]		5.19 µM		0.91		
	7.89 µM	40.85	43.19		CCOc1cc(C(Nc2cc(C)ccn2)c2ccc3ccc(C)nc3c2O)ccc1O (stereo not drawn) [compound 10071]		10.8 µM		1.37		
1.38 µM		6.951			Oc1c(C(Nc2ccccn2)c2ccccc2Br)cc(Cl)c2cccnc12 (stereo not drawn) [compound 10074]	1.6 µM		1.16			
	5.96 µM	53.89	25.94		COc1cc(C(Nc2ccccn2)c2cc(Cl)c3cccnc3c2O)cc(I)c1O (stereo not drawn) [compound 10086]		4.61 µM		0.77		
4.7 µM	5.23 µM	62.13	41.13		COc1cc(C(Nc2ccccn2)c2cc(Cl)c3cccnc3c2O)cc(Br)c1O (stereo not drawn) [compound 10087]	5.55 µM	5.79 µM	1.18	1.11		
1.76 µM	5.28 µM	21.53			Oc1c(C(Nc2ccccn2)c2cccc(F)c2)cc(Cl)c2cccnc12 (stereo not drawn) [compound 10090]	2.6 µM	5.62 µM	1.48	1.06		
	31.4 µM	25.13			O=C(O)c1ccc(C(Nc2ccccn2)c2cc(Cl)c3cccnc3c2O)cc1 (stereo not drawn) [compound 10093]		21.5 µM		0.68		
1.25 µM	6.23 µM	28.02			Oc1c(C(Nc2ccccn2)c2cccc(Cl)c2)cc(Cl)c2cccnc12 (stereo not drawn) [compound 10097]	2.07 µM	6.09 µM	1.66	0.98		
1.06 µM		18.12			Oc1c(C(Nc2ccccn2)c2cccc(Br)c2)cc(Cl)c2cccnc12 (stereo not drawn) [compound 10100]	1.72 µM		1.62			
2.88 µM		44.01	7.53	5.77 µM	CCOc1ccc(C(Nc2ccccn2)c2cc(Cl)c3cccnc3c2O)cc1 (stereo not drawn) [compound 10101]	2.59 µM		0.90	1.66	9.52 µM	
0.605 µM	1.29 µM	3.88			Oc1c(C(Nc2ccccn2)c2c(F)cccc2Cl)cc(Cl)c2cccnc12 (stereo not drawn) [compound 10105]	0.85 µM	1.45 µM	1.40	1.12		77%
1.13 µM		15.91			COc1ccc(Br)cc1C(Nc1ccccn1)c1cc(Cl)c2cccnc2c1O (stereo not drawn) [compound 10108]	1.73 µM		1.53			
0.534 µM		12.75			Oc1c(C(Nc2ccccn2)c2ccc(Cl)c(Cl)c2)ccc2cccnc12 (stereo not drawn) [compound 10109]	1.38 µM		2.58			
	4.74 µM	45.61	27.18		CCOc1ccc(C(Nc2cc(C)ccn2)c2ccc3cccnc3c2O)cc1OCC (stereo not drawn) [compound 10143]		4.33 µM		0.92		
	5.67 µM	39.73	21.02		C=CCOc1cccc(C(Nc2cc(C)ccn2)c2ccc3cccnc3c2O)c1 (stereo not drawn) [compound 10144]		5.29 µM		0.93		
0.697 µM	4.52 µM	80.77	92.46		Oc1c(C(Nc2cccnc2)c2cccs2)ccc2cccnc12 (stereo not drawn) [compound 10315]	0.783 µM	5.69 µM	1.12	1.26		
	5.56 µM	43.39	43.82		Oc1ccccc1C(Nc1ccccn1)c1ccc2cccnc2c1O (stereo not drawn) [compound 10427]		4.82 µM		0.87		
	6.47 µM	43.81	48.57		Cc1ccc(NC(c2ccccc2O)c2ccc3cccnc3c2O)nc1 (stereo not drawn) [compound 10430]		5.58 µM		0.86		
0.717 µM	0.73 µM	17.15			Oc1c(C(Nc2ccccn2)c2ccc(OC(F)F)cc2)ccc2cccnc12 (stereo not drawn) [compound 10466]	0.775 µM	0.95 µM	1.08	1.31		
